US8962608B2, “Cycloalkylnitrile pyrazole carboxamides as janus kinase inhibitors” (Merck Sharp & Dohme Corp., priority 2011, dated 2015)

molecular target: JAK1 (recombinant purified GST-tagged catalytic domain) (Homo sapiens (Human), UniProt P23458); assay: biochemical
Sequence (P23458 875-1153): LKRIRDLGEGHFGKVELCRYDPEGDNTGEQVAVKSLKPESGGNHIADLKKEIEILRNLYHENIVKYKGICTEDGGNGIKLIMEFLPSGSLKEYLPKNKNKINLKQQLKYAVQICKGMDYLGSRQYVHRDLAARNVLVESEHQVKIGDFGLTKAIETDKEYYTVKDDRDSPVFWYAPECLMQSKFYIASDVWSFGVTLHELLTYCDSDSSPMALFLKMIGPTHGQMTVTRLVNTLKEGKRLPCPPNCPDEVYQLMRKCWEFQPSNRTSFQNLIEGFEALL

**Q.** `CN(C)[C@@H]1CC[C@H](n2cc(C(N)=O)c(Nc3ccc(OC(F)F)cc3)n2)[C@@H](C#N)C1` (single isomer, unassigned) [Example 28-95, 1-[(1S,2S,4R or 1R,2R,4S)-2-cyano-4-(dimethylamino)cyclohexyl]-3-{[4-(difluoromethoxy)phenyl]amino}-1H-pyrazole-4-carboxamide] was tested. Which IC50 did it give?
**A.** The IC50 was 1 nM.

**Q.** For `N#C[C@H]1C[C@](O)(C2CC2)CC[C@@H]1n1cc(C(N)=O)c(Nc2ccc(Cl)cc2)n1` (single isomer, unassigned) [Example 32-12, 3-[(4-chlorophenyl)aminol-1-[(1S,2S,4S or 1R,2R,4R)-2-cyano-4-cyclopropyl-4-hydroxycyclohexyl]-1H-pyrazole-4-carboxamide], which IC50 is on record?
**A.** Its IC50 is 1 nM.

**Q.** How did the IC50 turn out when `CC(C)N[C@@H]1CC[C@H](n2cc(C(N)=O)c(Nc3ccc(S(=O)(=O)C(F)(F)F)cc3)n2)[C@@H](C#N)C1` (single isomer, unassigned) [Example 28-175, 1-{(1S,2S,4R or 1R,2R,4S)-2-cyano-4-[(1-methylethyl)amino]cyclohexyl}-3-({4-[(trifluoro-methyl)sulfonyl]phenyl}amino)-1H-pyrazole-4-carboxamide] was run?
**A.** The IC50 was 0.35 nM.

**Q.** For `N#C[C@H]1C[C@@](O)(C2CC2)CC[C@@H]1n1cc(C(N)=O)c(Nc2ccc(Cl)cc2)n1` (single isomer, unassigned) [Example 32-14, 3-[(4-chlorophenyl)amino]-1-[(1S,2S,4R or 1R,2R,4S)-2-cyano-4-cyclopropyl-4-hydroxycyclohexyl]-1H-pyrazole-4-carboxamide], which IC50 is on record?
**A.** The IC50 was 15 nM.

**Q.** For `N#C[C@H]1C[C@H](O)CC[C@@H]1n1cc(C(N)=O)c(Nc2ccc(Cl)c(F)c2)n1` (single isomer, unassigned) [Example 25-3, 3-[(4-chloro-3-fluorophenyl)amino]-1-[(1S,2S,4R or 1R,2R,4S)-2-cyano-4-hydroxycyclohexyl]-1H-pyrazole-4-carboxamide], which IC50 is on record?
**A.** Its IC50 is 1 nM.

**Q.** With `N#C[C@H]1C[C@@H](NC2CCOCC2)CCC1n1cc(C(N)=O)c(Nc2ccc(Cl)cc2)n1` (single isomer, unassigned) [Example 28-218, 3-[(4-chlorophenyl)amino]-1-[(1S,2S,4S or 1R,2R,4R)-2-cyano-4-(tetrahydro-2H-pyran-4-ylamino)cyclohexyl]-1H-pyrazole-4-carboxamide] as the molecule, how does the IC50 read?
**A.** The IC50 was 4 nM.

**Q.** How did the IC50 turn out when `COCC(C)(C)N[C@H]1CCC(n2cc(C(N)=O)c(Nc3ccc(Cl)cc3)n2)[C@@H](C#N)C1` (single isomer, unassigned) [Example 28-222, 3-[(4-chlorophenyl)amino]-1-{(1S,2S,4S or 1R,2R,4R)-2-cyano-4-[(2-methoxy-1,1-dimethylethyl)amino]cyclo-hexyl}-1H-pyrazole-4-carboxamide] was run?
**A.** The IC50 was 0.8 nM.

**Q.** How did the IC50 turn out when `N#C[C@@H]1CCCC[C@H]1n1cc(C(N)=O)c(Nc2ccc3c(c2)CCS3(=O)=O)n1` (single isomer, unassigned) [Example 45-6, 1-[(1S,2R or 1R,2S)-2-cyanocyclohexyl)-3-[(1,1-dioxido-2,3-dihydro-1-benzothiophen-5-yl)amino]-1H-pyrazole-4-carboxamide] was run?
**A.** The IC50 was 2 nM.

**Q.** How did the IC50 turn out when `N#C[C@@H]1C[C@H](C(=O)N2CC(F)(F)C2)CC[C@H]1n1cc(C(N)=O)c(Nc2ccc(Cl)cc2)n1` (single isomer, unassigned) [Example 35-15, 3-[(4-chlorophenyl)amino]-1-{(1R,2R,4R or 1S,2S,4S)-2-cyano-4-[(3,3-difluoroazetidin-1-yl)carbonyl]cyclohexyl}-1H-pyrazole-4-carboxamide] was run?
**A.** The IC50 was 3 nM.

**Q.** How did the IC50 turn out when `N#C[C@H]1CCCC[C@@H]1n1cc(C(N)=O)c(Nc2ccnc(Cl)c2)n1` (racemic) [Example 17-7, 3-[(2-chloropyridin-4-yl)amino]-1-[(1S,2S and 1R,2R)-2-cyanocyclohexyl]-1H-pyrazole-4-carboxamide] was run?
**A.** The IC50 was 4 nM.

**Q.** For `N#C[C@H]1CCCCC1n1cc(C(N)=O)c(Nc2ccc3c(c2)C=CS3(=O)=O)n1` (mixture of isomers) [Example 17-63, 1-[(1S,2S and 1R,2R)-2-cyanocyclohexyl]-3-[(1,1-dioxido-1-benzothiophen-5-yl)amino]-1H-pyrazole-4-carboxamide], which IC50 is on record?
**A.** The IC50 was 0.45 nM.
